Laboratory results as given in US20230407243A1, “GENETIC PLATFORM TO INVESTIGATE THE FUNCTIONS OF BACTERIAL DRUG EFFLUX PUMPS” (priority 2022, published 2023).
Like-named read-outs stand apart in the source and are kept apart here.

Columns and labels:
Assay type in all cases: cell-based, Escherichia coli
E. coli EKO-35 = test: microbe, parasite or virus in culture; details: for Fold change of MICs: EKO-35 compared to EKO-35 (reference); for MIC: Escherichia coli
Method in brief: (§1)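 Strains are grown overnight in LB at 37 °C, adjusted to OD600 ~1.0 in PBS (pH 7.4) and diluted 1/2000 into MHB II. They are incubated with twofold compound dilutions for 18 h at 37 °C. MIC comes from background-subtracted OD600.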

[1] = test system: wild-type E. coli K-12 str. BW25113; test: microbe, parasite or virus in culture; details: Escherichia coli
Method in brief: as §1

E. coli ΔtolC = test: microbe, parasite or virus in culture; details: for MIC: Escherichia coli, 18 h, read-out: Minimum Inhibitory Concentration, ΔtolC; for Minimum inhibitory concentration (MIC), ΔtolC: Table 10, without pore, technical duplicate
Method in brief: as §1

EKO-35 araC::acrEF Pore = test: MIC susceptibility profiling, porinated efflux platform; details: for Fold changes of MICs: EKO-35 araC::acrEF Pore compared to EKO-35-Pore
Method in brief: (§2)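 MIC values come from background-corrected OD600 readings (pre-incubation OD subtracted) after 18 h at 37 °C and 900 rpm in MHB II. Compounds were tested in duplicate as 2-fold dilutions. The inoculum came from 18 h LB cultures adjusted to OD600 ~1.0 and diluted 1/2000, and the pore-bearing strains were vancomycin-checked beforehand.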

EKO-35 araC::mdtBC Pore = test: as above; details: for Fold changes of MICs: EKO-35 araC::mdtBC Pore compared to EKO-35-Pore
Method in brief: as §2

EKO-35 araC::emrKY Pore = test: as above; details: for Fold changes of MICs: EKO-35 araC::emrKY Pore compared to EKO-35-Pore
Method in brief: as §2

EKO-35 araC::mexCD Pore = test: as above; details: for Fold changes of MICs: EKO-35 araC::mexCD Pore compared to EKO-35-Pore
Method in brief: as §2

EKO-35 araC::macAB Pore = test: as above; details: for Fold changes of MICs: EKO-35 araC::macAB Pore compared to EKO-35-Pore; for MIC: Escherichia coli, EKO-35 araC::macAB Pore, technical duplicate, read-out: Minimum inhibitory concentration
Method in brief: as §2

EKO-35 araC::emrAB Pore = test: as above; details: for Fold changes of MICs: EKO-35 araC::emrAB Pore compared to EKO-35-Pore; for MIC: Escherichia coli, EKO-35 araC::emrAB Pore, technical duplicate, read-out: Minimum inhibitory concentration
Method in brief: as §2

EKO-35 araC::acrB Pore = test: as above; details: for Fold changes of MICs: EKO-35 araC::acr-B Pore compared to EKO-35-Pore; for MIC: Escherichia coli, Table 14A, porinated, technical duplicate, read-out: Minimum inhibitory concentration, EKO-35 araC::acrB Pore
Method in brief: as §2

[2] = test system: EKO-35 araC::acrBD408A Pore; test: as above; details: for MIC: Escherichia coli, EKO-35 araC::acrBD408A Pore, technical duplicate, read-out: Minimum inhibitory concentration; for Fold changes of MICs: EKO-35 araC::acrBD408A Pore compared to EKO-35-Pore
Method in brief: as §2

EKO-35 araC::mdtEF Pore = test: as above; details: for Fold changes of MICs: EKO-35 araC::mdtEF Pore compared to EKO-35-Pore; for MIC: Escherichia coli, Table 14A, porinated, technical duplicate, read-out: Minimum inhibitory concentration, EKO-35 araC::mdtEF Pore
Method in brief: as §2

EKO-35 araC::acrD Pore = test: as above; details: for Fold changes of MICs: EKO-35 araC::acrD Pore compared to EKO-35-Pore
Method in brief: as §2

wild-type (WT) K-12-Pore = test: microbe, parasite or virus in culture; details: Escherichia coli
Method in brief: as §2

ΔtolC-Pore = test: microbe, parasite or virus in culture; details: for MIC: Escherichia coli, 18 h, read-out: Minimum inhibitory concentration, ΔtolC-Pore; for Minimum inhibitory concentration (MIC), Pore ΔtolC: Table 10, with pore, technical duplicate
Method in brief: as §2

EKO-35 araC::mdtBC = test: MIC susceptibility profiling, efflux platform; details: for Fold change of MICs: EKO-35 araC::mdtBC compared to EKO-35; for MIC: Escherichia coli, Table 13B, non-porinated, technical duplicate, read-out: Minimum Inhibitory Concentration, EKO-35 araC::mdtBC
Method in brief: as §1

EKO-35 araC::mdtEF = test: MIC susceptibility profiling, efflux platform; details: for Fold change of MICs: EKO-35 araC::mdtEF compared to EKO-35; for MIC: Escherichia coli, Table 13A, non-porinated, technical duplicate, read-out: Minimum Inhibitory Concentration, EKO-35 araC::mdtEF
Method in brief: as §1

EKO-35-Pore = test: MIC susceptibility profiling, porinated strain; details: for Fold changes of MICs: EKO-35-Pore compared to EKO-35-Pore (reference); for MIC: Escherichia coli, technical duplicate
Method in brief: as §2

[3] = EKO35, Table 10, without pore, technical duplicate, read-out: Minimum inhibitory concentration (MIC), EKO-35
[4] = EKO35, Table 13A, non-porinated, technical duplicate, read-out: Minimum Inhibitory Concentration, EKO-35
[5] = BW25113, Table 10, without pore, technical duplicate, read-out: Minimum inhibitory concentration (MIC), K-12
[6] = BW25113, Table 13A, non-porinated, technical duplicate, read-out: Minimum Inhibitory Concentration, K-12
[7] = Table 10, with pore, technical duplicate, read-out: Minimum inhibitory concentration (MIC), Pore K-12
[8] = Table 14A, porinated, technical duplicate, read-out: Minimum inhibitory concentration, K-12 (WT)-Pore

SMILES	Fold change of MICs (E. coli EKO-35) [fold]	MIC (E. coli ΔtolC) [µg/mL]	Minimum inhibitory concentration (MIC), ΔtolC (E. coli ΔtolC) [µg/mL]	Fold changes of MICs (EKO-35 araC::acrEF Pore) [fold]	Fold changes of MICs (EKO-35 araC::mdtBC Pore) [fold]	Fold changes of MICs (EKO-35 araC::emrKY Pore) [fold]	Fold changes of MICs (EKO-35 araC::mexCD Pore) [fold]	Fold changes of MICs (EKO-35 araC::macAB Pore) [fold]	Fold changes of MICs (EKO-35 araC::emrAB Pore) [fold]	Fold changes of MICs (EKO-35 araC::acrB Pore) [fold]	MIC [2] [µg/mL]	Fold changes of MICs (EKO-35 araC::mdtEF Pore) [fold]	Fold changes of MICs (EKO-35 araC::acrD Pore) [fold]	MIC (ΔtolC-Pore) [µg/mL]	Minimum inhibitory concentration (MIC), Pore ΔtolC (ΔtolC-Pore) [µg/mL]	Fold change of MICs (EKO-35 araC::mdtBC) [fold]	Fold change of MICs (EKO-35 araC::mdtEF) [fold]	Fold changes of MICs (EKO-35-Pore) [fold]	MIC (E. coli EKO-35; [3]) [µg/mL]	MIC (E. coli EKO-35; [4]) [µg/mL]	also measured
NCCCNCCCCNCCCN [Spermine]	1	2000	2000	1	1	1	1	1	1	1	500	1	1	2000	2000	1	1	1	–	–	MIC (E. coli EKO-35; EKO35, read-out: Minimum Inhibitory Concentration, EKO-35): 2000 µg/mL; MIC (E. coli EKO-35; EKO35, read-out: Minimum inhibitory concentration (MIC), EKO-35): 2000 µg/mL; MIC ([1]; BW25113, read-out: Minimum Inhibitory Concentration, K-12): 2000 µg/mL; MIC ([1]; BW25113, read-out: Minimum inhibitory concentration (MIC), K-12): 2000 µg/mL; MIC (wild-type (WT) K-12-Pore; read-out: Minimum inhibitory concentration (MIC), Pore K-12): 2000 µg/mL; MIC (wild-type (WT) K-12-Pore; read-out: Minimum inhibitory concentration, K-12 (WT)-Pore): 2000 µg/mL
[H]/N=C(/N)N[C@H]1[C@H](O)[C@@H](O)[C@H](O[C@@H]2O[C@@H](C)[C@](O)(C=O)[C@H]2O[C@@H]2O[C@@H](CO)[C@H](O)[C@@H](O)[C@@H]2NC)[C@@H](N/C(N)=N\[H])[C@@H]1O [Streptomycin]	1	3.12	3.125	1	1	1	1	1	1	2	1.56	1	1	1.56	1.563	2	2	1	3.12	3.12	MIC [1, 5]: 6.25 µg/mL; MIC [1, 6]: 6.25 µg/mL; MIC (EKO-35 araC::acrEF Pore; Escherichia coli, Table 14A, porinated, technical duplicate, read-out: Minimum inhibitory concentration, EKO-35 araC::acrEF Pore): 3.12 µg/mL; MIC (EKO-35 araC::mdtBC Pore; Escherichia coli, EKO-35 araC::mdtBC Pore, technical duplicate, read-out: Minimum inhibitory concentration): 3.12 µg/mL; MIC (EKO-35 araC::emrKY Pore; Escherichia coli, EKO-35 araC::emrKY Pore, technical duplicate, read-out: Minimum inhibitory concentration): 3.12 µg/mL; MIC (EKO-35 araC::mexCD Pore; Escherichia coli, EKO-35 araC::mexCD Pore, technical duplicate, read-out: Minimum inhibitory concentration): 3.12 µg/mL; MIC (EKO-35 araC::macAB Pore): 3.12 µg/mL; MIC (EKO-35 araC::emrAB Pore): 3.12 µg/mL; MIC (EKO-35 araC::acrB Pore): 6.25 µg/mL; Fold changes of MICs [2]: 1 fold; MIC (EKO-35 araC::mdtEF Pore): 3.12 µg/mL; MIC (EKO-35 araC::acrD Pore; Escherichia coli, Table 14A, porinated, technical duplicate, read-out: Minimum inhibitory concentration, EKO-35 araC::acrD Pore): 3.12 µg/mL; MIC (wild-type (WT) K-12-Pore; [7]): 12.5 µg/mL; MIC (wild-type (WT) K-12-Pore; [8]): 12.5 µg/mL; MIC (EKO-35 araC::mdtBC): 6.25 µg/mL; MIC (EKO-35 araC::mdtEF): 6.25 µg/mL; MIC (EKO-35-Pore; Table 10, with pore, read-out: Minimum inhibitory concentration (MIC), Pore EKO-35): 3.12 µg/mL; MIC (EKO-35-Pore; Table 14A, porinated, read-out: Minimum inhibitory concentration, EKO-35-Pore): 3.12 µg/mL
Nc1ccc(S(=O)(=O)Nc2nccs2)cc1 [Sulfathiazole]	1	5	5	1	1	1	1	2	2	2	1.25	2	1	2.5	2.5	1	1	1	10	10	MIC [1, 5]: 5 µg/mL; MIC [1, 6]: 5 µg/mL; MIC (EKO-35 araC::macAB Pore): 10 µg/mL; MIC (EKO-35 araC::emrAB Pore): 10 µg/mL; MIC (EKO-35 araC::acrB Pore): 10 µg/mL; Fold changes of MICs [2]: 0 fold; MIC (EKO-35 araC::mdtEF Pore): 10 µg/mL; MIC (wild-type (WT) K-12-Pore; [7]): 5 µg/mL; MIC (wild-type (WT) K-12-Pore; [8]): 5 µg/mL; MIC (EKO-35 araC::mdtBC): 10 µg/mL; MIC (EKO-35 araC::mdtEF): 10 µg/mL
